# Measured values reported in EP3828160A1, “TREPROSTINIL DERIVATIVE COMPOUNDS AND METHODS OF USING SAME” (Corsair Pharma, Inc., priority 2014, dated 2016).
# Tests used:
# [1] = Human liver microsomal stability assay (Test 1); type: in vitro ADME; details: liver microsomes, 0.5 uM test compound, 37°C, up to 45 minutes, 0.5 mg microsomal protein, NADPH generating system, pH 7.4, read-out: Test 1 T1/2
# Method: (§1) Four assays on compounds were carried out by the following methods with the results shown in Table I. • (Test 1) Human liver microsomal stability assay was conducted by incubating 0.5 uM test compounds at 37°C for up to 45 minutes in 50 mM of potassium phosphate buffer (pH 7.4) containing 0.5 mg of microsomal protein and 50 µL of NADPH generating system (7.8 mg of glucose 6-phosphate, 1.7 mg of NADPH and 6 U of glucose 6-phosphate dehydrogenase per mL in 2% w/v of sodium bicarbonate). At 0, 5, 15, 30 and 45 min., an aliquot was taken, quenched with internal standard containing stop solution. No co-factor controls at 45 minutes were also prepared. After incubation, the samples were analyzed by LC-MS/MS. Peak area ratios of analyte to internal standard were used to calculate the intrinsic clearance. The intrinsic clearance (CLint) was determined from the first order elimination constant by non-linear regression. Formation of the active drug Compound A over the time course was also monitored by LC-MS/MS analysis. • (Test 2) Human plasma stability assay was conducted by incubating 0.5 uM test compounds at 37°C for up to 120 minutes in heparinated human plasma. At 0, 5, 15, 30, 60 and 120 […] min., an aliquot was taken, quenched with internal standard containing stop solution. After incubation, the samples were analyzed by LC-MS/MS. Peak area ratios of analyte to internal standard were used to calculate the half-life. Formation of the active drug Compound A over the time course was also monitored by LC-MS/MS analysis. • (Test 3) Human skin homogenate stability assay was conducted in a similar way as the human liver microsomal stability assay, by incubating 0.5 uM test compounds at 37°C for up to 45 minutes in 50 mM of potassium phosphate buffer (pH 7.4) containing 0.5 mg of human skin homogenate protein and 50 µL of NADPH generating system (7.8 mg of glucose 6-phosphate, 1.7 mg of NADPH and 6 U of glucose 6-phosphate dehydrogenase per mL in 2% w/v of sodium bicarbonate). At 0, 5, 15, 30 and 45 min., an aliquot was taken, quenched with internal standard containing stop solution. No co-factor controls at 45 minutes were also prepared. After incubation, the samples were analyzed by LC-MS/MS. Peak area ratios of analyte to internal standard were used to calculate the intrinsic clearance. The intrinsic clearance (CLint) was determined from the first order elimination constant by non-linear regression. Formation of the active drug Compound A over the time course was also monitored by LC-MS/MS analysis. • (Test 4) Human hepatocyte stability assay was conducted by incubating 0.5 uM test compound at 37°C for up to 240 minutes. Cryopreserved human hepatocytes were obtained from Celsis IVT (Baltimore, Maryland). Cells were thawed according to vendor's instructions and were suspended in William's Medium E to 0.5 million cells/mL. Test compounds were spiked into the cell suspension to initiate the reactions. At 0, 10,30,60, 120 and 240 min., an aliquot was taken, quenched with internal standard containing stop solution. After incubation, the samples were analyzed by LC-MS/MS. Peak area ratios of analyte to internal standard were used to calculate the intrinsic clearance. The intrinsic clearance (CLint) was determined from the first order elimination constant by non-linear regression. Formation of the active drug Compound A over the time course was also monitored by LC-MS/MS analysis.
# [2] = Human plasma stability assay (Test 2); type: in vitro ADME; details: 0.5 uM test compound, 37°C, up to 120 minutes, heparinated human plasma, read-out: Test 2 T1/2
# Method: as §1
# [3] = Human hepatocyte stability assay (Test 4); type: in vitro ADME; details: cryopreserved hepatocytes, 0.5 uM test compound, 37°C, up to 240 minutes, 0.5 million cells/mL in William's Medium E, read-out: Test 4 T1/2
# Method: as §1
# [4] = Human skin homogenate stability assay (Test 3); type: in vitro ADME; details: 0.5 uM test compound, 37°C, up to 45 minutes, 0.5 mg human skin homogenate protein, NADPH generating system, pH 7.4, read-out: Test 3 T1/2
# Method: as §1
# [5] = treprostinil as the free acid, cited from earlier work
SMILES,half-life at 0.5 uM [1] [min],half-life at 0.5 uM [2] [min],half-life at 0.5 uM [3] [min],half-life at 0.5 uM [4] [min],absolute oral bioavailability ([5]; oral),systemic half life ([5]; due to significant metabolism)
"CCCCCC(O)CCC1C(O)CC2Cc3c(cccc3OCC(=O)NCC3CC3)CC21 (stereo not drawn) [Compound 2, N-Cyclopropylmethyl-2-[2-hydroxy-1-(3-hydroxy-octyl)-2,3,3a,4,9,9a-hexahydro-1H-cyclopenta[b]naphthalen-5-yloxy]-acetamide]",< 15,> 60,31 to 60,–,–,–
"CCCCCC(O)CCC1C(O)CC2Cc3c(cccc3OCC(=O)NCCO)CC21 (stereo not drawn) [Compound 7, N-(2-Hydroxy-ethyl)-2-[2-hydroxy-1-(3-hydroxy-octyl)-2,3,3a,4,9,9a-hexahydro-1H-cyclopenta[b]naphthalen-5-yloxy]-acetamide]",15 to 30,> 60,15 to 30,–,–,–
"CCCCCC(O)CCC1C(O)CC2Cc3c(cccc3OCC(=O)N(C)CC(=O)OC)CC21 (stereo not drawn) [Compound 13, ({2-[2-Hydroxy-1-(3-hydroxy-octyl)-2,3,3a,4,9,9a-hexahydro-1H-cyclopenta[b]naphthalen-5-yloxy]-acetyl}-methyl-amino)-acetic acid methyl ester]",< 15,> 60,< 15,–,–,–
"CCCCCC(O)CCC1C(O)CC2Cc3c(cccc3OCC(=O)NCC(F)(F)F)CC21 (stereo not drawn) [Compound 14, 2-[2-Hydroxy-1-(3-hydroxy-octyl)-2,3,3a,4,9,9a-hexahydro-1H-cyclopenta[b]naphthalen-5-yloxy]-N-(2,2,2-trifluoro-ethyl)-acetamide]",< 15,> 60,< 15,> 60,–,–
"CCCCCC(O)CCC1C(OC(=O)OCC)CC2Cc3c(cccc3OCC(=O)OC)CC21 (stereo not drawn) [Compound 25, [2-Ethoxycarbonyloxy-1-(3-hydroxy-octyl)-2,3,3a,4,9,9a-hexahydro-1H-cyclopenta[b]naphthalen-5-yloxy]-acetic acid methyl ester]",< 15,> 60,–,31 to 60,–,–
"CCCCC[C@H](O)CC[C@@H]1[C@H]2Cc3cccc4c3C[C@H]2C[C@H]1OC(=O)CO4 [Compound 57, Treprostinil 2-hydroxy lactone]",> 60,> 60,> 60,–,–,–
CCCCC[C@H](O)CC[C@@H]1[C@H]2Cc3cccc(OCC(=O)O)c3C[C@H]2C[C@H]1O [treprostinil],–,–,–,–,less than 10%,very short
